Common to all, as to type: cell-based, human
The subject of data set [1] is hMSCs. The data set is described as follows: Alizarin red staining for calcium phosphate deposits (ECM mineralization, bone cell maturation). The settings on record: OS treatment started three days after siRNA transfection and continued for 9 days (3+9OS), vs siCon.
The test system of a further data set is p38. The data set is described as follows: Western blot of phosphorylated p38. The settings on record: 72 hours after transfection. The protocol:
Cell lyses buffer contains 20 mM Tris pH8.0, 1 mM EDTA, 150 mM NaCl and 0.5% NP-40, and before usage, protease inhibitor cocktail (Cat# p8340, Sigma, 1:100 dilution) and phosphatase inhibitor cocktail 2 (Cat# p5726, sigma, 1:100 dilution) were added. Proteins (60 μg/well) were separated in 12% Novex Tris-Glycine gel (Cat# EC6008 box, Invitrogen) and transferred to Nitrocellulose membrane (Cat# LC2001, Invitrogen) using the XCell II blot module system (Cat# E19051, Invitrogen). The membrane was blocked in 5% milk/PBST for 1 hour at room temperature, incubated over night at 4 degree with primary antibody, washed 3 times with PBST (0.05% Tween 20 in PBS), followed by one hour incubation with secondary antibody in 5% milk/PBST and 3 times wash with PBST at room temperature. For antibody against pCREB however, PBST was substituted with PBS in all steps except for the last one. Antibody-bound proteins were detected utilizing ECL Western blotting detection reagent (Amersham Biosciences).
Anti-phospho-CREB was purchased from Upstate Biotechnology (cat# 06-519); Anti-phospho-p38 was purchased from Cell signaling technology (cat# 9910).
We therefore examined the activation status of ERK1/2 and p38 in the siDUSP6 treated hMSCs along with other siRNA treated samples by western blot using antibodies against the phosphorylated form of the protein at 72 hours after transfection (FIG. 9c).
In general terms: A western blot detects proteins with antibodies after separation by electrophoresis.

For the next data set, the system named is PLZF. The data set is described as follows: RT-PCR of PLZF. The settings on record: samples collected day 7 or day 12 after siRNA transfection. How it is done: Total RNA from each sample was prepared from around 5×10(4) cells using RNAeasy mini kit from Qiagen and further treated with Turbo DNA-Free (cat# 1907, Ambion) to prevent DNA contamination. Reverse transcription was carried out using SuperScript First-Strand Synthesis System for RT-PCR (cat# 11904-018, Invitrogen) or Qiagen OneStep RT-PCR kit (cat# 210210) as instructed. PCR primers used were as follows: […]
To test their roles in our siRNA induced osteogenic differentiation, RT-PCR was performed on these genes. […] In addition, MAPK signaling pathways have been shown activated in the OS treated hMSCs, and inhibition of these pathways suppresses OS induced osteogenesis (FIG. 9b) (Jaiswal, R. K. et al., J Biol Chem 275:9645-9652 (2000)).

In data set [2] the test system is hMSCs. The data set is described as follows: Alkaline phosphatase (ALP) activity staining of hMSCs after siRNA transfection. How it is done:
The human mesenchymal stem cells (hMSCs, PT-2501) were purchased from Cambrex Inc. and cultured as instructed by the supplier. Cells were expanded to passage 5 before being used for siRNA library screen. Briefly, diluted Xtreme-siRNA transfection reagent (cat# 476 115 00, Roche) (0.12 μl Xtreme in 14 μl DMEM) was mixed with pre-spotted siRNA (14 ng/well) in each well of 384-well plates for one hour. Cells (4000/well) in 60 μl media (no antibiotics) were then added using automated dispenser (Multidrop 384, Thermo LabSystems) (siRNA final concentration at around 15 nM). Transfection was allowed to continue for 8 hours before first media renewal. After 7 days of culture, cells were stained for alkaline phosphatase (ALP) activity (cat# 86R-1 KT, Sigma). Post-screen assays were done in 96-well plates and siRNA was transfected at the concentration of 30 nM at the cell density of 8000 cells/well. CRE decoy oligonucleotide and control oligonucleotide (phosphorothioate bond modification on all nucleotides) (Park, Y. G. et al., J Biol Chem 274:1573-1580 (1999)) were transfected into cells similarly as siRNA using Xtreme-siRNA transfection reagent, except that the final DNA concentration was 90 nM. […]

Data set [3] deals with hMSCs. Nature of the data set: Adipogenic differentiation of hMSCs, Oil Red O staining. The settings on record: Adipo from third day after siRNA transfection, continued 12 days, Oil Red O. How it is done: Cells were rinsed with PBS twice, fixed in 10% formalin solution for 20 minutes, rinsed with PBS twice and dH2O once, washed with propylene glycol for 5 minutes, and stained with Oil red in propylene glycol (12722A, Newcomer Supply) for 30 minutes. Cells were then washed with 85% propylene glycol for 5 minutes, rinsed with dH2O 3 times and preserved in 50% glycerol.
8-CPT-cAMP, Na (cat# 116812), 5-Iodotubercidin (cat# 407900), Prostaglandin E2 (PGE2, cat# 538904), SB 202190 (cat# 559388) and U0126 (cat# 662005) were purchased from Calbiochem; N6,2′-O-Dibutyryl-cAMP (cat# D0260-5MG), forskolin (cat# F6886), ascorbic acid 2-phosphate (cat# 49752-10G), (3-glycerophosphate (G-6251), dexamethasone (D8893), 3-isobutyl-1-methylxanthine (IBMX, 15879) and Insulin (19278) were purchased from Sigma/Aldrich/Fluka.
Bone cell maturation is accompanied by extracellular matrix (ECM) mineralization (John Bilezikian et al., Principles of bone biology, Vol 1, 2nd edn: Academic Press) (2002)). To examine whether the osteogenic differentiation of hMSCs induced by the hit siRNAs can further proceed to the maturation stage, hit siRNA treated cells were cultured for 20 days. […] These observations are consistent with the conclusion that the targeted genes of the ten effective hit siRNAs not only play inhibitory roles in osteogenic specification of hMSCs, but also in bone cell maturation. […] Furthermore, in osteoporotic patients, the number of adipocytes was increased in the marrow, implying a change of cell fate disposition from osteoblast lineage to adipocyte lineage (Justesen, J. et al., Biogerontology 2:165-171 (2001); Meunier, P. et al., Clin Orthop Relat Res 80:147-154 (1971)). We therefore examined the effect of our hit siRNAs on adipogenic differentiation of hMSCs by combined treatment with an adipogenic inducing cocktail (100 μg/ml BMX, 1 μM DEX and 10 μg/ml insulin).
Since the targeted genes are all positively involved in intracellular cAMP signaling, we tested the effect of two compounds of opposing function on cAMP production on osteogenic differentiation of hMSCs, ADK inhibitor 5-iodotubercidin and ADCY activator forskolin (Cottam, H. B. et al., J Med Chem 36:3424-3430 (1993); de Souza, N. J. et al., Med Res Rev 3:201-219 (1983)). […] ATP has been shown as a ligand for P2RY11 receptor (Communi et al., 1997). […] The present observations are consistent with the conclusion that […] in hMSCs, and vice versa.

Turning to “siDUSP6: siRNA CUGUGGUGUCUUGGUACAU targeting dual specificity phosphatase 6 (listed as RNA, chemistry not given here)”, the “intensity of alizarin red staining” value in the data set on hMSCs [1] is given as “modest enhancement”. Moreover, the “level of active (phosphorylated) p38” value with p38 was “increased level of active p38”. As to “siMJD: siRNA CAGAUGCAUCGACCAAAAC targeting Machado-Joseph disease (ataxin 3) (listed as RNA, chemistry not given here)”, the “expression of PLZF” value in the data set with PLZF is “detected”. Besides, the “intensity of alizarin red staining” value in the data set on hMSCs [1] was “no significant effect”. Take “CBFA1 siRNA: CBFA1-specific siRNA, antisense UAGUAGAGAUAUGGAGUGCtg, sense GCACUCCAUAUCUCUACUAtt (chain 1 UAGUAGAGAUAUGGAGUGCTG; chain 2 GCACUCCAUAUCUCUACUATT; chemistry not given here) [reference compound]”: the “ALP activity induced by hit siRNAs or OS on co-treatment” value in the data set on hMSCs [2] (co-transfected with each hit siRNA, vs co-treatment with siCon) was “reduced the level of ALP activity”.

For the substance “siCOMP: siRNA CGGUCACGGAUGACGACUA targeting cartilage oligomeric matrix protein (listed as RNA, further chemistry not given here)”, in the data set with hMSCs [3], the “adipogenesis induced by adipogenic inducing media (Adipo)” value was “enhances adipogenesis”. Besides, in the data set with hMSCs [2] (9 days after siRNA transfection), the “osteogenic differentiation (ALP activity)” value was “induces osteogenic differentiation of hMSCs”.

Values taken from patent US20100184113A1, “CONTROLLING OSTEOGENESIS BY INHIBITION OF OSTEOGENIC SUPPRESSORS” (The Scripps Research Institute Office of Patent Counsel, priority 2006, published 2010).
